Measurements: patent US20260234543A1, “MICROORGANISMS AND METHODS FOR REDUCING BY-PRODUCTS” (Genomatica, Inc., priority 2023, published 2026)

How the values were obtained:
[1] = tested on: acyl-CoA synthetase (ACS) (SEQ ID NO: 1); assay: ACS activity on substrates of various chain lengths (enzymatic coupled assay for detection of AMP); assay type: biochemical, Ruegeria pomeroyi; conditions: 5 mM substrate, pH 7.5; for Activity: 250 μM CoA, 1 mM ATP
Experimental: Purified acyl-CoA synthetase (ACS) (GenBank Accession No. WP_011046428.1; see, SEQ ID NO: 1) was assayed for activity on a range of substrates of various chain lengths. The substrates tested, which were conjugate bases (or carboxylates) of C2-C8 carboxylic acids, included acetate (C2), acetoacetate (C4), butyrate (C4), (R)- and(S)-3-hydroxybutryate ((R)-3-HB and(S)-3HB; C4), succinate (C4), hexanoate (C6), adipate (C6), 6-aminocaproic acid (6ACA; C6), and octanoate (C8).
An enzymatic coupled assay for detection of AMP, which is a co-product of the synthetase/ligase enzymatic reaction catalyzed by the ACS/CoA ligase, was used. The coupling enzymes used were adenylate kinase, pyruvate dehydrogenase, and lactate dehydrogenase, which catalyze reactions resulting in the oxidation of 2 NADH molecules per molecule of AMP produced by the ACS/CoA ligase enzymatic reaction. The coupling reagents for AMP detection were phospho (enol) pyruvate and NADH. The ACS/CoA ligase enzymatic reactions were followed by monitoring NADH oxidation over time, by measuring absorbance at 340 nm.
Reactions were set up in 96-well absorbance plates, in aqueous buffer at pH 7.5, and 5 mM of conjugate base substrate, 250 μM of Coenzyme A (CoA), 1 mM of ATP, 5 mM of MgCl2, 1 mM of phospho (enol) pyruvate, 500 μM of NADH, and non-rate limiting concentrations of the three coupling enzymes (adenylate kinase, pyruvate dehydrogenase, and lactate dehydrogenase), were added for each reaction. The ACS enzyme was added at a concentration that was appropriate for measuring a linear change on absorbance over up to 20 minutes. For example, 100 nM of ACS was added for the reactions with butyrate or 3-HB as the substrates. Negative control reactions omitted the substrate (conjugate base), the CoA, or the ACS enzyme.

[2] = tested on: CAR enzyme (SEQ ID NO: 3); assay: In vitro CAR activity for conversion of 3HB to 3HB-Ald (NADPH absorbance at 340 nm); assay type: biochemical, Mycobacterium avium; conditions: for CAR Activity: 1 μM CAR, 0.5 mM NADPH, 1 mM ATP
Experimental: In vitro CAR activity for the conversion of 3HB to 3HB—Ald was determined by direct measurement of the decrease in NADPH concentration, by measuring NADPH absorbance at 340 nm over time. The reactions were carried out in 96-well absorbance plates, and varying concentrations of 3HB substrate (see, TABLE 8 below), 0.5 mM of NADPH, 1 mM of ATP, 5 mM of MgCl2, and 1 μM of CAR enzyme (see, SEQ ID NO: 3) were added. A negative control reaction was included, in which addition of 3HB substrate was omitted. CAR activity was measured as μM of NADPH oxidized per minute per μM of CAR enzyme.

Structure (SMILES) | Activity [1] | ACS activity on substrate (in words) [1] | other results
C[C@@H](O)CC(=O)O [(R)-3HB, (3R)-hydroxybutyrate] | 322 μM AMP/min/μM ACS | – | –
C[C@H](O)CC(=O)O [(S)-3HB, (3S)-hydroxybutyrate] | 222 μM AMP/min/μM ACS | – | –
CC(=O)O [Acetate] | 38 μM AMP/min/μM ACS | exhibits activity | –
CC(=O)CC(=O)O [Acetoacetate] | 34 μM AMP/min/μM ACS | exhibits activity | –
O=C(O)CCCCC(=O)O [Adipate, adipate] | No activity | – | –
CCCCCCCC(=O)O [Octanoate, octanoate] | No activity | – | –
CC(O)CC(=O)O (stereo not drawn) [Strain 3HB, 3-hydroxybutyrate] | – | has activity on both the (R) and(S) forms | CAR activity as a function of 3HB concentration (in words) ([2]; 0.78125-50 mM 3HB): CAR activity increases as the concentration of 3HB substrate increases; CAR Activity ([2]; 3HB substrate 0.78125 mM): 0.47 μM NADPH oxidized/min/μM CAR; CAR Activity ([2]; 3HB substrate 1.5625 mM): 1.30 μM NADPH oxidized/min/μM CAR; CAR Activity ([2]; 3HB substrate 3.125 mM): 2.61 μM NADPH oxidized/min/μM CAR; CAR Activity ([2]; 3HB substrate 6.25 mM): 4.24 μM NADPH oxidized/min/μM CAR; CAR Activity ([2]; 3HB substrate 12.5 mM): 5.87 μM NADPH oxidized/min/μM CAR; CAR Activity ([2]; 3HB substrate 25 mM): 8.81 μM NADPH oxidized/min/μM CAR; CAR Activity ([2]; 3HB substrate 50 mM): 10.25 μM NADPH oxidized/min/μM CAR
NCCCCCC(=O)O [Strain 6ACA, 6-aminocaproic acid] | 0.015 μM AMP/min/μM ACS | exhibits activity | –
O=C(O)CCC(=O)O [Succinate, succinate] | 0.06 μM AMP/min/μM ACS | exhibits activity | –
